Test system: SW 1271 complex tumor spheroid viability
Assay: Anticancer human tumor SW 1271 cell line growth inhibition;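 further: spheroids exposed to agents for seven days before readout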;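 on viability, T/C: percent of DMSO vehicle control luminescence so 100% = vehicle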
Conditions: for IC50: curve of first compound; for viability, T/C: stronger effect = lower value
How it was run: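 Complex tumor spheroids combined malignant cells with endothelial cells and mesenchymal stem cells. DNA-damaging drugs and DNA repair inhibitors were tested alone and in combination, at half-log dilutions down from clinical Cmax (top 10 microM if Cmax unknown), 0.25% DMSO final.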

[1] = second compound 30 pM, first compound 0.0316 µM
[2] = second compound 30 pM, first compound 0.1 µM
[3] = second compound 30 pM, first compound 0.316 µM
[4] = second compound 30 pM, first compound 1 µM
[5] = second compound 30 pM, first compound 3.16 µM
[6] = second compound 30 pM, first compound 10 µM
[7] = second compound 94.9 pM, first compound 0.0316 µM
[8] = second compound 94.9 pM, first compound 0.1 µM
[9] = second compound 94.9 pM, first compound 0.316 µM
[10] = second compound 94.9 pM, first compound 1 µM
[11] = second compound 94.9 pM, first compound 3.16 µM
[12] = second compound 94.9 pM, first compound 10 µM
[13] = second compound 0.0003 µM, first compound 0.0316 µM
[14] = second compound 0.0003 µM, first compound 0.1 µM
[15] = second compound 0.0003 µM, first compound 0.316 µM
[16] = second compound 0.0003 µM, first compound 1 µM
[17] = second compound 0.0003 µM, first compound 3.16 µM
[18] = second compound 0.0003 µM, first compound 10 µM
[19] = second compound 0.000949 µM, first compound 0.0316 µM
[20] = second compound 0.000949 µM, first compound 0.1 µM
[21] = second compound 0.000949 µM, first compound 0.316 µM
[22] = second compound 0.000949 µM, first compound 1 µM
[23] = second compound 0.000949 µM, first compound 3.16 µM
[24] = second compound 0.000949 µM, first compound 10 µM
[25] = second compound 0.003 µM, first compound 0.0316 µM
[26] = second compound 0.003 µM, first compound 0.1 µM
[27] = second compound 0.003 µM, first compound 0.316 µM
[28] = second compound 0.003 µM, first compound 1 µM
[29] = second compound 0.003 µM, first compound 3.16 µM
[30] = second compound 0.003 µM, first compound 10 µM

CC1COCCN1c1cc(-c2ccnn2C)c2ccnc(-c3ccn[nH]3)c2n1 (stereo not given) + COc1cc2c(cc1O)CCNC21CSC2c3c(OC(C)=O)c(C)c4c(c3C(COC1=O)N1C(O)C3Cc5cc(C)c(OC)c(O)c5C(C21)N3C)OCO4
IC50 (second compound 30 pM): < 31.6 nM
IC50 (second compound 94.9 pM): < 31.6 nM
IC50 (second compound 0.0003 µM): < 31.6 nM
IC50 (second compound 0.000949 µM): < 31.6 nM
IC50 (second compound 0.003 µM): < 31.6 nM
viability, T/C [1]: 42.9%
viability, T/C [2]: 12.5%
viability, T/C [3]: 7.53%
viability, T/C [4]: 3.2%
viability, T/C [5]: 2.78%
viability, T/C [6]: 2.04%
viability, T/C [7]: 10.9%
viability, T/C [8]: 6.89%
viability, T/C [9]: 5.14%
viability, T/C [10]: 3.73%
viability, T/C [11]: 1.95%
viability, T/C [12]: 2.12%
viability, T/C [13]: 10.8%
viability, T/C [14]: 6.88%
viability, T/C [15]: 5.11%
viability, T/C [16]: 2.88%
viability, T/C [17]: 1.51%
viability, T/C [18]: 1.29%
viability, T/C [19]: 3%
viability, T/C [20]: 1.96%
viability, T/C [21]: 1.34%
viability, T/C [22]: 1.09%
viability, T/C [23]: 0.1%
viability, T/C [24]: 0.3%
viability, T/C [25]: 0.1%
viability, T/C [26]: 0.09%
viability, T/C [27]: 0.1%
viability, T/C [28]: 0.08%
viability, T/C [29]: 0.09%
viability, T/C [30]: 0.15%

O=C(c1cc(Cc2n[nH]c(=O)c3ccccc23)ccc1F)N1CCN(C(=O)C2CC2)CC1 + CC[C@@]1(O)C(=O)OCc2c1cc1n(c2=O)Cc2cc3c(CN(C)C)c(O)ccc3nc2-1
IC50 (second compound 0.003 µM): < 94.9 nM
IC50 (second compound 0.00949 µM): < 94.9 nM
IC50 (second compound 0.03 µM): < 94.9 nM
IC50 (second compound 0.0949 µM): < 94.9 nM
IC50 (second compound 0.3 µM): < 94.9 nM
viability, T/C (second compound 0.003 µM, first compound 0.0949 µM): 34.5%
viability, T/C (second compound 0.003 µM, first compound 0.3 µM): 42.2%
viability, T/C (second compound 0.003 µM, first compound 0.949 µM): 40.8%
viability, T/C (second compound 0.003 µM, first compound 3 µM): 27.9%
viability, T/C (second compound 0.003 µM, first compound 9.49 µM): 27.4%
viability, T/C (second compound 0.003 µM, first compound 30 µM): 25.8%
viability, T/C (second compound 0.00949 µM, first compound 0.0949 µM): 27%
viability, T/C (second compound 0.00949 µM, first compound 0.3 µM): 27%
viability, T/C (second compound 0.00949 µM, first compound 0.949 µM): 28.1%
viability, T/C (second compound 0.00949 µM, first compound 3 µM): 25.3%
viability, T/C (second compound 0.00949 µM, first compound 9.49 µM): 29.2%
viability, T/C (second compound 0.00949 µM, first compound 30 µM): 28.3%
viability, T/C (second compound 0.03 µM, first compound 0.0949 µM): 25%
viability, T/C (second compound 0.03 µM, first compound 0.3 µM): 25.5%
viability, T/C (second compound 0.03 µM, first compound 0.949 µM): 29.5%
viability, T/C (second compound 0.03 µM, first compound 3 µM): 37.1%
viability, T/C (second compound 0.03 µM, first compound 9.49 µM): 26.1%
viability, T/C (second compound 0.03 µM, first compound 30 µM): 29.7%
viability, T/C (second compound 0.0949 µM, first compound 0.0949 µM): 34.8%
viability, T/C (second compound 0.0949 µM, first compound 0.3 µM): 26.4%
viability, T/C (second compound 0.0949 µM, first compound 0.949 µM): 28.4%
viability, T/C (second compound 0.0949 µM, first compound 3 µM): 27.1%
viability, T/C (second compound 0.0949 µM, first compound 9.49 µM): 28.7%
viability, T/C (second compound 0.0949 µM, first compound 30 µM): 28%
viability, T/C (second compound 0.3 µM, first compound 0.0949 µM): 16.1%
viability, T/C (second compound 0.3 µM, first compound 0.3 µM): 13.4%
viability, T/C (second compound 0.3 µM, first compound 0.949 µM): 12.1%
viability, T/C (second compound 0.3 µM, first compound 3 µM): 10.5%
viability, T/C (second compound 0.3 µM, first compound 9.49 µM): 19%
viability, T/C (second compound 0.3 µM, first compound 30 µM): 8.08%

COc1ccc([C@@H](O)c2cc(-c3ncnc4cc(N5CCOCC5)ccc34)c(F)cc2Cl)nn1 + CC[C@@]1(O)C(=O)OCc2c1cc1n(c2=O)Cc2cc3c(CN(C)C)c(O)ccc3nc2-1
IC50 (second compound 0.003 µM): 1230 nM
IC50 (second compound 0.00949 µM): 103 nM
IC50 (second compound 0.03 µM): < 31.6 nM
IC50 (second compound 0.0949 µM): < 31.6 nM
IC50 (second compound 0.3 µM): < 31.6 nM
viability, T/C [25]: 83.3%
viability, T/C [26]: 85.1%
viability, T/C [27]: 75.2%
viability, T/C [28]: 54.3%
viability, T/C [29]: 26.9%
viability, T/C [30]: 6.38%
viability, T/C (second compound 0.00949 µM, first compound 0.0316 µM): 57.9%
viability, T/C (second compound 0.00949 µM, first compound 0.1 µM): 53%
viability, T/C (second compound 0.00949 µM, first compound 0.316 µM): 37.9%
viability, T/C (second compound 0.00949 µM, first compound 1 µM): 29.6%
viability, T/C (second compound 0.00949 µM, first compound 3.16 µM): 19.6%
viability, T/C (second compound 0.00949 µM, first compound 10 µM): 6.43%
viability, T/C (second compound 0.03 µM, first compound 0.0316 µM): 31.5%
viability, T/C (second compound 0.03 µM, first compound 0.1 µM): 31.1%
viability, T/C (second compound 0.03 µM, first compound 0.316 µM): 28.8%
viability, T/C (second compound 0.03 µM, first compound 1 µM): 28.6%
viability, T/C (second compound 0.03 µM, first compound 3.16 µM): 19.9%
viability, T/C (second compound 0.03 µM, first compound 10 µM): 6.27%
viability, T/C (second compound 0.0949 µM, first compound 0.0316 µM): 27.9%
viability, T/C (second compound 0.0949 µM, first compound 0.1 µM): 27.6%
viability, T/C (second compound 0.0949 µM, first compound 0.316 µM): 25%
viability, T/C (second compound 0.0949 µM, first compound 1 µM): 25.9%
viability, T/C (second compound 0.0949 µM, first compound 3.16 µM): 21.7%
viability, T/C (second compound 0.0949 µM, first compound 10 µM): 3.71%
viability, T/C (second compound 0.3 µM, first compound 0.0316 µM): 13%
viability, T/C (second compound 0.3 µM, first compound 0.1 µM): 14.8%
viability, T/C (second compound 0.3 µM, first compound 0.316 µM): 15%
viability, T/C (second compound 0.3 µM, first compound 1 µM): 10.2%
viability, T/C (second compound 0.3 µM, first compound 3.16 µM): 1.72%
viability, T/C (second compound 0.3 µM, first compound 10 µM): 0.2%

CC(C)n1c(=O)n(C)c2cnc3cc(F)c(-c4ccc(OCCCN5CCCCC5)nc4)cc3c21 + COc1cc2c(cc1O)CCNC21CSC2c3c(OC(C)=O)c(C)c4c(c3C(COC1=O)N1C(O)C3Cc5cc(C)c(OC)c(O)c5C(C21)N3C)OCO4
IC50 (second compound 30 pM): 931 nM
IC50 (second compound 94.9 pM): < 31.6 nM
IC50 (second compound 0.0003 µM): < 31.6 nM
IC50 (second compound 0.000949 µM): < 31.6 nM
IC50 (second compound 0.003 µM): < 31.6 nM
viability, T/C [1]: 65%
viability, T/C [2]: 57.5%
viability, T/C [3]: 53.4%
viability, T/C [4]: 45.6%
viability, T/C [5]: 51.8%
viability, T/C [6]: 29.3%
viability, T/C [7]: 29.6%
viability, T/C [8]: 28.7%
viability, T/C [9]: 22.3%
viability, T/C [10]: 24.2%
viability, T/C [11]: 20.9%
viability, T/C [12]: 15.8%
viability, T/C [13]: 28.5%
viability, T/C [14]: 33.3%
viability, T/C [15]: 24.7%
viability, T/C [16]: 24.2%
viability, T/C [17]: 19.1%
viability, T/C [18]: 12.9%
viability, T/C [19]: 4.24%
viability, T/C [20]: 3.92%
viability, T/C [21]: 2.81%
viability, T/C [22]: 1.61%
viability, T/C [23]: 1.37%
viability, T/C [24]: 1.05%
viability, T/C [25]: 0.12%
viability, T/C [26]: 0.11%
viability, T/C [27]: 0.09%
viability, T/C [28]: 0.1%
viability, T/C [29]: 0.1%
viability, T/C [30]: 0.16%

— PubChem BioAssay AID1845215 (Molecular Pharmacology Branch, DTP, NCI, 2023)
